The text below walks through data of US4089959A, “Long-acting xanthine bronchodilators and antiallergy agents” (priority 1976, dated 1978).

The test system of data set [1] is histamine-induced bronchoconstriction. The experiment in a line: BD: bronchodilator activity against histamine-induced bronchoconstriction in the guinea pig. It counts as in vivo. The conditions noted are these: for potency, in words: 4280 at 20 mpK po vs 4258 at 15 mpK po; for lethal (animals) / dose showing lethal effects: guinea pig; for dose showing lethal effects: po. As to the method:
A modification of the method of Siegmund. O. H., et.al., J. Pharmacol. and Exp. Therap. 90:254-9, 1947, is used. […] Times for prostration are recorded.

The test system of data set [2] is guinea pig tracheal chain. Put plainly: SP: spasmolytic activity in vitro, guinea pig tracheal chain preparation. It counts as cell-based. The conditions noted are these: Cavia porcellus; given as fraction of molar, e.g. M/1000; read-out: SP in vitro, C: molar (M) concentration required to produce maximum relaxation. The source says:
SP: Spasmolytic activity evaluated in vitro using guinea pig tracheal chain preparation, and expressed as the molar (M) concentration required to produce maximum relaxation. The method used in that of Castillo and de Beer, J. Pharmac. Expt. Therap. 90, 104, 1947.

For data set [3], the system named is antigen-induced bronchconstriction. The experiment in a line: AA: antiallergy (anti-anaphylactic) activity against antigen-induced bronchoconstriction in sensitized rats. The conditions noted are these: 1h.
Text: The animals are subdivided into control and test groups.
Test animals receive a drug either orally, intraperitoneally or intravenously and are challenged with intravenous antigen at fixed time intervals after dosing. Antigen-induced increases in tracheal pressure are monitored and reflect the extent of bronchoconstriction.
The nature of another data set: in vivo. Here is the method: (§1) The LD50 was determined in three species, the mouse (male, 18-25 g), the albino rat (female, 150-200 g) and the albino guinea pig (male 180-280 g) by oral administration and in the albino rat by intraperitoneal administration. The animals are fasted overnight prior to testing. Six groups of 10 animals are used; five groups are dosed with the test substance, the sixth group serves as a control and receives the drug vehicle at the highest test concentration. The compounds were administered in a 0.5% gum tragacanth solution in distilled water using a constant logarithmic increment in dose. Dose volume ranged from […].
The animals were housed five per cage (rat and guinea pig) or ten per cage (mouse) with free access to food and water. The number of dead animals was recorded daily for five consecutive days.

The next data set can be described thus: LD50, mouse. The conditions noted are these: in vivo, po. Here is the method:
as §1
The animals were housed five per cage (rat and guinea pig) or ten per cage (mouse) with free access to food and water. The number of dead animals was recorded daily for five consecutive days. The total mortality per group of 10 for each dose level was recorded and LD50 with Confidence Limits calculated according to the method described by Weil, C. S., Biometrics 8(3): 249-263, 1952.

The test system of data set [4] is antigen-induced wheal formation. The experiment in a line: PCA: passive cutaneous anaphylaxis in the rat. The conditions noted are these: 20 mg/kg po. It counts as in vivo. As to the method: PCA: Antianaphylactic activity against passive cutaneous anaphylaxis in the rat, expressed as % protection against antigen-induced wheal formation.
The method used is that of Ogilvie, B. M., Immunology 12, 113-131 (1967). Reaginic […] antibodies develope in that rat following subcutaneous injection of Nippostrongylus brasiliensis larvae. Antisera, collected 28 days later are injected subcutaneously into new rats.

Data set [5] concerns histamine-induced bronchoconstriction. Put plainly: CP: cardiopulmonary activity against histamine-induced bronchoconstriction in the dog. It counts as in vivo. The conditions noted are these: histamine administration; vs theophylline. The source says: Int. Pharmacodyn. Therap. […] Pretreatment with bronchodilator drugs aims to block the bronchospastic response to histamine. Each dog serves as its own control.

With `CCC(C)Cn1c(=O)n(C)c(=O)c2[nH]cnc21` (stereo not shown) [Compound 4280], the “BD, % protection” value stood at 86% in data set [1] (20 mpK po, 30'); 86% in data set [1] (20 mpK po, 1h); 80% in data set [1] (20 mpK po, 2h); 13% in data set [1] (20 mpK po, 4h). Also, in data set [1], the “potency, in words” value was “equal potency”. In addition, in data set [1] (80 mpK po), the “lethal (animals)” value is recorded as 3/8. The “dose showing lethal effects” value in data set [1] turned out to be 80 mpK. The EC (maximum relaxation) in data set [2] worked out at 0.001 M. Besides, the “AA, % protection” value in data set [3] (15 mpK ip) amounted to 56%.
Regarding `CCCC(C)Cn1c(=O)n(C)c(=O)c2[nH]c(C)nc21` (stereo not shown) [Compound 4373, 1,8-dimethyl-3-(2-methyl-1-pentyl)xanthine], the “BD, % protection” value in data set [1] (40 mpK po, 30') is 71%; in data set [1] (40 mpK po, 4h) it was 87%; in data set [1] (40 mpK po, 6h) it was 96%; in data set [1] (80 mpK po, 30'), 81%; in data set [1] (80 mpK po, 4h), 100%. Besides, the EC (maximum relaxation) in data set [2] was determined as 0.05 M. Further, the “AA, % protection” value in data set [3] (20 mpK ip) is given as 54%.
On to `Cc1nc2c([nH]1)c(=O)n(C)c(=O)n2CC(C)C` [Compound 4388, 1,8-dimethyl-3-isobutylxanthine], for which the “BD, % protection” value in data set [1] (10 mpK po, 1h) is 76%; in data set [1] (10 mpK po, 4h), 73%; in data set [1] (10 mpK po, 6h), 80%. In addition, the “toxic effects in the BD (guinea pig) assay, in words” value in data set [1] (20 mpK po) is “pronounced toxicity and was even lethal to one animal”. In data set [1] (general statement), the “bronchodilator potency, in words” value was “great potency and is long-acting”. The “lethal (animals)” value in data set [1] (20 mpK po) is on record as 1/4. Moreover, the EC (maximum relaxation) in data set [2] was found to be 0.001 M. Besides, the “AA, % protection” value is given as 50% in data set [3] (2.5 mpK po) and 70% in data set [3] (75 mpK ip).
As to `CC(C)Cn1c(=O)n(C)c(=O)c2[nH]cnc21` [Compound 4258], the “BD, % protection” value in data set [1] (15 mpK po, 30') came to 45%; in data set [1] (15 mpK po, 2h) it was 75%; in data set [1] (15 mpK po, 4h) it was 39%. Also, the “potency, in words” value in data set [1] was “equal potency”. Besides, the “lethal (animals)” value in data set [1] (25 mpK po) was 2/4. For the same compound, the “dose showing lethal effects” value in data set [1] turned out to be 25 mpK. The EC (maximum relaxation) in data set [2] was 0.001 M. The “AA, toxicity noted in place of % protection” value in data set [3] (2.0 mpK ip) was “tox”.
On to `Cc1nc2c([nH]1)c(=O)n(C)c(=O)n2C` [Compound 4296], for which the “BD, % protection” value came out at 23% in data set [1] (100 mpK po, 8h); 68% in data set [1] (150 mpK po, 30'); 85% in data set [1] (150 mpK po, 8h). Further, the EC (maximum relaxation) in data set [2] amounted to 0.0714 M.
As for `Cn1c(=O)c2[nH]cnc2n(C)c1=O` [Theophylline, 1,3-dimethylxanthine], the EC (maximum relaxation) in data set [2] came to 0.1 M.
As usually defined, the LD50 is the dose at which mortality reaches 50%. With `CCC(C)Cn1c(=O)n(C)c(=O)c2[nH]c(C)nc21` (stereo not shown) [Compound 4383, 1,8-dimethyl-3-(2-methyl-1-butyl) xanthine], the “BD, % protection” value in data set [1] (10 mpK po, 30') was 35%; in data set [1] (10 mpK po, 2h), 63%; in data set [1] (10 mpK po, 6h), 66%; in data set [1] (20 mpK po, 1h), 92%; in data set [1] (20 mpK po, 4h) it was 100%; in data set [1] (20 mpK po, 6h), 97%. Also, the “bronchodilation potency in the BD (guinea pig) assay, in words” value in data set [1] (10 mpK po, 4383 vs 4388) is given as “about the same bronchodilation potency as 4388”. For the same compound, the “toxic effects in the BD (guinea pig) assay, in words” value in data set [1] (20 mpK po) is recorded as “no toxic effects”. For the same compound, in data set [2], the EC (maximum relaxation) was found to be 0.001 M. Moreover, the LD50 at 120 h came to 24.6 mg/kg in “in vivo” (ip, rat); 21.7 mg/kg in “in vivo” (po, guinea pig); 88.7 mg/kg in the data set “in vivo” (po, rat); 66.6 mg/kg in “LD50, mouse”. For the same compound, the “Wheal Diameter, % Δ” value in data set [4] stood at 50%. For the same compound, the “Wheal Intensity, % Δ” value in data set [4] came out at 48%. In addition, the “Wheal Diameter: Mean ± S.E.M., Response” value in data set [4] (control 1.50 ± 0.16) stood at 0.74 ± 0.16 cm. Also, the “Wheal Intensity: Mean ± S.E.M., Response” value in data set [4] (control 2.17 ± 0.21) was found to be 1.13. Also, the “bronchodilation in the dog, in words” value in data set [5] is “significantly reduces the decrease in pulmonary compliance and increase in pulmonary resistance due to histamine administration”. Moreover, the “AA, % protection” value was found to be 58% in data set [3] (2.5 mpK po) and 57% in data set [3] (4 mpK ip).
